Our source for the RP-LC retention time values is the METLIN SMRT retention time set (Domingo-Almenara et al. 2019).

The nature of the series: gradient 5% acetonitrile 3 min, to 50% in 2 min, to 85% in 15 min, held 3 min, 100 µL/min. The settings on record: column: Zorbax Extend-C18 2.1 x 50 mm; eluents: water / acetonitrile, 0.1% formic acid. In a few lines: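 Retention times of pure standards were taken from adduct peaks that were selected by computer and manually inspected. Over 3 months, mixtures of ~100 molecules were run by HPLC–quadrupole time-of-flight mass spectrometry in positive and negative ionization mode. The Zorbax Extend-C18 column (2.1 × 50 mm, 1.8 μm) ran at 100 μL/min in water and acetonitrile, each containing 0.1% formic acid, with 40 μL dead volume and 900 μL dwell volume.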
For the compound `CCOC(=O)CC1(NC(=O)NCC(=O)N2CCc3ccccc32)CCCCC1`, the RP-LC retention time was determined as 885 s. To `O=C(NCc1ccc(F)cc1F)C1CCCN(c2ncnc3c2oc2ccccc23)C1` (centres undefined) belongs 762 s. The compound `O=C(c1ccc(Br)cc1)N1CCc2[nH]nc(C(=O)N3CCOCC3)c2C1` yielded an RP-LC retention time of 661 s. The compound `Cc1cccc(N2CCN(CC(O)COc3ccccc3Cl)CC2)c1` (centres undefined) came in with an RP-LC retention time of 828 s. `Cc1noc(-c2ccc(NC(=O)c3cc(-c4ccco4)on3)cc2)n1` gave an RP-LC retention time of 902 s. Compound `CC(C)C(=O)Nc1ccc2c(c1)nc(CN1CCOCC1)n2C(C)C` showed an RP-LC retention time of 607 s.

Compound `Cc1nn(C)c(C)c1CNC(=O)C1CCN(c2cnn(Cc3ccccc3)c(=O)c2)CC1` returned an RP-LC retention time of 654 s.

`O=C(NCc1cc(F)ccc1F)c1ccc2c(c1)nc1n2CCN(C2CCCCC2)C1=O`: the RP-LC retention time came out at 830 s.

`COc1ccc(CNC(=O)CN2CCc3[nH]c4c(OC)ccc(Cl)c4c(=O)c3C2)cc1` returned an RP-LC retention time of 610 s. Regarding `CC(C)CN1CCn2cc(S(=O)(=O)Nc3ccc(F)cc3)cc2C1=O`, the RP-LC retention time worked out at 1020 s. The compound `CCOc1cc(C(=O)N2CCCC2c2nc(-c3ccc(OC)cc3)no2)cc(OCC)c1OCC` (centres undefined) displayed an RP-LC retention time of 1080 s. `O=C(NCC1CCCO1)C1CCN(c2ncccc2-c2nc(-c3cccc(Cl)c3)no2)CC1` (centres undefined) came in with an RP-LC retention time of 990 s. `CCN1CCCC1CN(CCC(=O)N1CCNCC1)C(=O)c1ccc(C(F)(F)F)cc1` (centres undefined) showed an RP-LC retention time of 569 s. With `O=C(NCC1CCCO1)C(=O)NCC(c1ccc2c(c1)OCO2)N1CCOCC1` (centres undefined) the figure was 583 s; with `CN(C)CC(=O)N1CCc2[nH]nc(-c3ccc(F)cc3)c2C1`, 588 s; with `CCOc1ccc(NC(=O)C2CCN(S(=O)(=O)c3cn(C)cn3)CC2)cc1`, 699 s. As to `COCCN1C(=O)c2ccccc2C(C(=O)Nc2ccc3c(c2)OCO3)C1c1ccc(F)cc1` (centres undefined), the RP-LC retention time stood at 875 s. In turn, `Cc1c(Cl)cccc1Nc1c(-c2ccc3c(c2)OCO3)nc2cnccn12` showed an RP-LC retention time of 975 s.

Take `Cc1ccccc1NS(=O)(=O)c1cc2[nH]c(=O)[nH]c2cc1C`: the RP-LC retention time came out at 679 s. Compound `CCc1cc(=O)n(CC(=O)NCCc2ccc(Cl)cc2)c(N2CCOCC2)n1` yielded an RP-LC retention time of 803 s. As for `CC(C)C(NC(=O)c1ccco1)c1nc(-c2ccc3c(c2)ncn3C2CCCC2)no1` (centres undefined), the RP-LC retention time is 741 s. `CCOC(=O)c1c(C)oc2ncnc(NCCN3CCN(c4cccc(Cl)c4)CC3)c12`: the RP-LC retention time stood at 860 s. On to `Cc1c(-c2noc(C(=O)N3CCc4ccccc4C3)n2)oc2c(C)cccc12`, for which the RP-LC retention time worked out at 1280 s. `CC(C)c1csc(-c2csc(S(=O)(=O)N3CCN(c4ccccc4F)CC3)c2)n1`: the RP-LC retention time stood at 1330 s.

Take `CCCN(CCC)C(=O)c1cc2c(s1)N(C)CCCC2`: the RP-LC retention time is 1150 s. The compound `COCc1nc(-c2ccc(OC3CCN(C(=O)C4(c5ccccc5)CC4)C3)cc2)no1` (centres undefined) gave an RP-LC retention time of 932 s.

`NC(=O)c1c(NC(=O)C2CCCN(C(=O)C3CCCC3)C2)sc2c1CCCC2` (centres undefined): the RP-LC retention time worked out at 866 s. `COc1ccc(CSc2ncn[nH]2)cc1` returned an RP-LC retention time of 630 s. In the case of `CSc1ccc(NC(=O)C2CC(=O)N(c3ccc4c(c3)CCN4C(C)=O)C2)cc1` (centres undefined), the RP-LC retention time was 730 s. Compound `COc1cccc2c1OC1(C)CC2C(S(=O)(=O)c2ccc(Cl)cc2)C(=O)N1` (centres undefined) yielded an RP-LC retention time of 877 s. `CCn1ccc2c(cc(C(=O)Nc3cccc(C)c3C)n2C)c1=O` returned an RP-LC retention time of 736 s.

Compound `Cc1cc(F)ccc1NC(=O)COc1cc(C(F)(F)F)c2c(C)nn(C)c2n1` returned an RP-LC retention time of 985 s.

Regarding `NS(=O)(=O)c1ccc(NC(=O)Cc2csc3nc(-c4ccccc4)cn23)cc1`, the RP-LC retention time stood at 650 s. As for `CCN1C(=O)COc2ccc(-c3noc(C(C)Oc4ccccc4)n3)cc21` (centres undefined), the RP-LC retention time turned out to be 1090 s. To `COCCCNC(=O)c1ccc(-c2nc(CSc3ccccc3)c(C)o2)cc1` belongs 934 s. In turn, `O=C(Nc1ccc2c(c1)CCC2)C1CCc2nc(N3CCCCC3)ncc2C1` (centres undefined) came in with an RP-LC retention time of 905 s. `CCNc1nc(NC)nc(-n2cnc(SC)n2)n1` had an RP-LC retention time of 674 s. As for `O=C(COc1ccccc1F)NCCn1nc(-c2ccco2)ccc1=O`, the RP-LC retention time was 675 s. Turning to `Cc1nn(CC(=O)N2CCN(C(C)C)CC2)c(=O)c2nc(-c3ccccc3)sc12`, the RP-LC retention time was determined as 620 s. `CC(=O)Nc1cccc(-c2nc(-c3ccc4c(c3)oc(=O)n4C(C)C)no2)c1C` yielded an RP-LC retention time of 873 s. As for `CC(C)C1c2nccn2CCCN1C(=O)CCn1cccn1` (centres undefined), the RP-LC retention time was 574 s. In turn, `Cc1ccc(CNc2c(-c3ccc(Cl)cc3)nc3ncccn23)cc1` gave an RP-LC retention time of 867 s. With `O=C(Nc1ccc2c(c1)OCCO2)c1ccc(-c2ccsc2)nc1` the figure was 864 s; with `Cc1cccc(CNC(=O)C2(C)Cn3cnc(C(=O)N(C)Cc4ccccc4)c3C(=O)N2C2CC2)c1` (centres undefined), 816 s.

For the compound `Cc1nc(-c2ccc(F)cc2)sc1C(=O)N1CCC(C(C)C(=O)NC2CC2)CC1` (centres undefined), the RP-LC retention time is 747 s. With `CN(CCNC(=O)C1CCc2nc(N3CCOCC3)ncc2C1)C1CCCCC1` (centres undefined) the figure was 586 s. The compound `Cc1nnc(-c2ccc3ccn(CC(=O)NC4CCCC4)c3c2)o1` yielded an RP-LC retention time of 740 s.

With `CCCNC(=O)c1cn(-c2ccc(NC(=O)C3CC3)cn2)cn1`, the RP-LC retention time was 655 s.

The compound `CCC(=O)N1CCN(Cc2nc3cc(NC(=O)c4cccs4)ccc3n2C)CC1` displayed an RP-LC retention time of 602 s. On to `CCn1cnc2ccc(-c3noc(-c4ccc(F)cc4)n3)cc21`, for which the RP-LC retention time turned out to be 780 s. Compound `O=C(Cn1c(=O)oc2ccccc21)NCC12CCCC=C1NC(=O)CC2` (centres undefined) registered an RP-LC retention time of 678 s. With `COc1ccc(N2CCN(C(=O)Cn3ncc4c(c3=O)N(C)C(=O)CS4)CC2)cc1`, the RP-LC retention time is 635 s. Consider `Cc1ccc(NC(=O)CSc2nccc(N3CCCCCC3)n2)cc1F`, for which the RP-LC retention time amounted to 738 s. With `O=c1cc(-c2ccc(Cl)cc2)[nH]c2ccccc12` the figure was 869 s. Compound `CC(C)Cn1c(=O)c(C(=O)NCc2ccccc2C(F)(F)F)nc2cccnc21` registered an RP-LC retention time of 1070 s. The compound `COc1cccc(CNC(=O)CCc2nc3c(C)cccc3c(=O)n2C)c1` yielded an RP-LC retention time of 801 s.

Compound `CCOc1cccc(CNC(=O)c2nc(N3CCSCC3)c3cnn(C)c3n2)c1` returned an RP-LC retention time of 854 s. To `CCC1CN(C(=O)N2CCC(C(=O)N3CCN(C(=O)c4ccco4)CC3)CC2)c2ccccc2O1` (centres undefined) belongs 751 s; to `Cc1nc(-c2cc(S(=O)(=O)NCc3ccc(Br)cc3)c(C)s2)cs1`, 1030 s; to `Cc1ccc2c(c1)N(Cc1nc(C3CC3)no1)N=C(C(=O)N1CCC(C)CC1)S2(=O)=O`, 992 s. The compound `CCCNS(=O)(=O)c1cccc(-c2nnc(-c3ccc(C)cc3)o2)c1` showed an RP-LC retention time of 971 s. `O=C1CCCc2cc(S(=O)(=O)N3CCC(C(=O)NCc4cccs4)CC3)ccc2N1` had an RP-LC retention time of 695 s. `CCn1c(=O)c(N2CCN(C(=O)NC3CCCCC3)CC2)nc2ccccc21` displayed an RP-LC retention time of 919 s.

As for `Brc1ccc(CN2CCc3nc(N4CCN(c5ccccn5)CC4)ncc3C2)cc1`, the RP-LC retention time amounted to 574 s. On to `Cc1ccc(NC(=O)N2CCc3nc(-c4ccc(Cl)cc4)ncc3C2)cc1C`, for which the RP-LC retention time was determined as 1160 s. Compound `NCC(O)C1CCCCCCC1` (centres undefined) showed an RP-LC retention time of 633 s.

Take `COc1nc2ccccc2nc1N1CCCC(C(=O)Nc2cccc(Cl)c2)C1` (centres undefined): the RP-LC retention time is 1220 s. Consider `Cc1oc2ccn(Cc3ccc(F)cc3)c(=O)c2c1C(=O)NCc1ccco1`, for which the RP-LC retention time was 975 s. For the compound `CC1(C(=O)NCc2ccccc2)CN(S(C)(=O)=O)CC(=O)N1c1cccc(F)c1` (centres undefined), the RP-LC retention time was found to be 710 s. The compound `O=C(c1ccsc1)N1CCC2(CC1)NCc1ccccc1-n1ccnc12` yielded an RP-LC retention time of 588 s. `COc1ccc(CN(Cc2ccccc2)Cc2cc(=O)n3ccc(C)cc3n2)cc1OC`: the RP-LC retention time stood at 662 s. `Cc1ccc(N2N=C(C(=O)N3CCN(C(C)C)CC3)S(=O)(=O)c3cccnc32)cc1` gave an RP-LC retention time of 649 s. `CCn1cnc(S(=O)(=O)N2CCC(C(=O)Nc3ccc(C)c(N(C)C)c3)CC2)c1` gave an RP-LC retention time of 588 s. To `CCC(=O)N1CCc2sc(S(=O)(=O)N3CCN(c4ccc(C)cc4)CC3)cc2C1` belongs 1000 s.

`CCOc1ccccc1NC(=O)N(Cc1cccs1)C1CCN(CC)CC1` displayed an RP-LC retention time of 698 s.

Take `CCOc1ccc2c(n1)CCN(C(=O)Nc1cc(C)ccc1C)C2`: the RP-LC retention time was 862 s.

Take `COc1ccccc1-c1nc(Cn2nnc(-c3nc(-c4ccc(C)cc4)no3)c2C)c(C)o1`: the RP-LC retention time is 1170 s. The compound `CCOC(=O)CN1N=C(C(=O)N2CCC(C)CC2)S(=O)(=O)c2ccc(C)cc21` came in with an RP-LC retention time of 939 s. The compound `COc1ccc(Nc2nc(N)nc(CSc3nnc4sc5ccccc5n34)n2)cc1` had an RP-LC retention time of 692 s.
